Read-outs that look alike come from different tables or passages of the source. Bridge positions count the residues as written; N and C are the ends. Square brackets hold non-standard residues; d marks the D form. Peptide text beside a SMILES is read from it. 1Nal = N[C@@H](Cc1cccc2ccccc12)C(=O)O
Experiments:
human Kv1.1 (HEK293) = biological target: T1, human Kv1.1 (HEK293) (Homo sapiens, UniProt Q09470); experiment: cell-based
T1 construct: expressed in transfected cells; host or cells: HEK293

human Kv1.3 (CHO) = biological target: T2, human Kv1.3 (CHO) (Homo sapiens, UniProt P22001); experiment: cell-based; format: cell-based
T2 construct: expressed in transfected cells

[1] = system: thapsigargin-induced IFN-g production in human whole blood; format: cell-based; settings: for IC50: read-out: Analogue Activity (IC50) WB/IFNg
[2] = system: thapsigargin-induced IL-2 production in human whole blood; settings: for IC50: read-out: Analogue Activity (IC50) WB/IL-2
human Kv1.3 [3] = biological target: T3, human Kv1.3 (Homo sapiens, UniProt P22001); experiment: cell-based
human Kv1.3 [4] = biological target: T3, human Kv1.3; format: cell-based; set-up: expressed in transfected cells
[5] = read-out: IC50 for block of the outward potassium current

T3 sequence (P22001 whole entry): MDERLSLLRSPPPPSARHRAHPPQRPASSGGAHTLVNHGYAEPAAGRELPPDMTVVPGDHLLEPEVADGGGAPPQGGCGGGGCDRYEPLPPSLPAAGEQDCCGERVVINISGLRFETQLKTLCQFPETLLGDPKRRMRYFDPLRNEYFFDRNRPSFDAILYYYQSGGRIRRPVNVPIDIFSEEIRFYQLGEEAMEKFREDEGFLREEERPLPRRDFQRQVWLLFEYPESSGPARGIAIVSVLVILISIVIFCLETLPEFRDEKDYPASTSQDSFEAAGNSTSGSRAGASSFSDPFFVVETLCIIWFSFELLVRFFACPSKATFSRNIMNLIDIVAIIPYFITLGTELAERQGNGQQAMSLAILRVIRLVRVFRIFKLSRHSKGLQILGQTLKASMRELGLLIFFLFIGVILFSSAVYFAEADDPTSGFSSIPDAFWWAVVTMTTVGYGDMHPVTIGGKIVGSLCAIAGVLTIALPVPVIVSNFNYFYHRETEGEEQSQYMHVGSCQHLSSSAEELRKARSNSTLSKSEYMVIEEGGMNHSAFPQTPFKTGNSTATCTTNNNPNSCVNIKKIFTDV
T2 sequence (P22001 whole entry): as above
T1 sequence (Q09470 whole entry): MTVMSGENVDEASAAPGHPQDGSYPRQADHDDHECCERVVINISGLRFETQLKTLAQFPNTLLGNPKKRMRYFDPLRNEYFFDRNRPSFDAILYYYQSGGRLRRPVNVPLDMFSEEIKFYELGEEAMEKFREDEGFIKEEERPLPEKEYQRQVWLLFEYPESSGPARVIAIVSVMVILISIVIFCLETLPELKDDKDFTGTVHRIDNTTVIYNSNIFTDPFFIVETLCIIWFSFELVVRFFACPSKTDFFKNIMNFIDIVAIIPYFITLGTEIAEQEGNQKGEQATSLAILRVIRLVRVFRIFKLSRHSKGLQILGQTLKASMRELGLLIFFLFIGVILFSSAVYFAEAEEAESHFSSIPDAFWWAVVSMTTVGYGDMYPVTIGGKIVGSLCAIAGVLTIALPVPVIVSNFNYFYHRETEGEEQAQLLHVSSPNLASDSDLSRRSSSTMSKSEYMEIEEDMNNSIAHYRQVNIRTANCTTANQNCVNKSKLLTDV

CC[C@H](C)[C@@H]1NC(=O)[C@H](CCCCN)NC(=O)[C@@H](NC(=O)[C@H](CCCCN)NC(=O)[C@@H](NC(=O)[C@H](CC(N)=O)NC(=O)[C@@H](NC(=O)[C@@H](NC(=O)[C@@H](NC(=O)CN)C(C)C)[C@@H](C)CC)[C@@H](C)CC)C(C)C)CSSC[C@@H]2NC(=O)[C@H](CCCCN)NC(=O)CNC(=O)[C@H](Cc3ccccc3)NC(=O)[C@H](CCCNC(=N)N)NC(=O)[C@H](CCSC)NC(=O)CNC(=O)[C@H](C)NC(=O)[C@H](CCCCN)NC(=O)[C@H](CCCCN)NC(=O)[C@@H]3CSSC[C@@H](C(=O)N[C@H](C(=O)N4CCC[C@H]4C(=O)N[C@@H](CCCCN)C(=O)O)[C@@H](C)O)NC(=O)[C@H](Cc4c[nH]cn4)NC(=O)[C@H](CSSC[C@H](NC(=O)[C@H](CCC(N)=O)NC(=O)[C@H](CCCNC(=N)N)NC(=O)[C@H](CCC(=O)O)NC1=O)C(=O)N[C@@H](CC(C)C)C(=O)N[C@@H](CCC(=O)O)C(=O)N1CCC[C@H]1C(=O)N3)NC(=O)[C@H](CCCCN)NC(=O)CNC(=O)[C@H](CC(N)=O)NC(=O)[C@H](CCSC)NC2=O [S11E] (H-GVIINVKCKIERQCLEPCKKAGMRFGKCMNGKCHCTPK-OH; disulfide 8-28, 14-33, 18-35)
IC50 (human Kv1.1 (HEK293)): > 3.33 nM
IC50 (human Kv1.3 (CHO)): > 3.33 nM

CC[C@H](C)[C@@H]1NC(=O)[C@H](CCCCN)NC(=O)[C@@H](NC(=O)[C@H](CCCCN)NC(=O)[C@@H](NC(=O)[C@H](CC(N)=O)NC(=O)[C@@H](NC(=O)[C@@H](NC(=O)[C@@H](NC(=O)CN)C(C)C)[C@@H](C)CC)[C@@H](C)CC)C(C)C)CSSC[C@@H]2NC(=O)[C@H](CCCCN)NC(=O)CNC(=O)[C@H](Cc3ccccc3)NC(=O)[C@H](CCCNC(=N)N)NC(=O)[C@H](CCSC)NC(=O)CNC(=O)[C@H](C)NC(=O)[C@H](CCCCN)NC(=O)[C@H](CCCCN)NC(=O)[C@@H]3CSSC[C@@H](C(=O)N[C@H](C(=O)N4CCC[C@H]4C(=O)N[C@@H](CCCCN)C(=O)O)[C@@H](C)O)NC(=O)[C@H](Cc4c[nH]cn4)NC(=O)[C@H](CSSC[C@H](NC(=O)[C@H](CCC(N)=O)NC(=O)[C@H](Cc4cccc5ccccc45)NC(=O)[C@H](CO)NC1=O)C(=O)N[C@@H](CC(C)C)C(=O)N[C@@H](CCC(=O)O)C(=O)N1CCC[C@H]1C(=O)N3)NC(=O)[C@H](CCCCN)NC(=O)CNC(=O)[C@H](CC(N)=O)NC(=O)[C@H](CCSC)NC2=O [R12Nal] (H-GVIINVKCKIS[1Nal]QCLEPCKKAGMRFGKCMNGKCHCTPK-OH; disulfide 8-28, 14-33, 18-35)
IC50 [1]: 0.387 nM
IC50 (human Kv1.1 (HEK293)): 0.025 nM
IC50 [2]: 0.46 nM
IC50 (human Kv1.3 (CHO)): 0.0377 nM

CC[C@H](C)[C@@H]1NC(=O)[C@H](CCCCN)NC(=O)[C@@H](NC(=O)[C@H](CCCCN)NC(=O)[C@@H](NC(=O)[C@H](CC(N)=O)NC(=O)[C@@H](NC(=O)[C@@H](NC(=O)[C@@H](NC(=O)CN)C(C)C)[C@@H](C)CC)[C@@H](C)CC)C(C)C)CSSC[C@@H]2NC(=O)[C@H](CCCCN)NC(=O)CNC(=O)[C@H](Cc3ccccc3)NC(=O)[C@H](CCCNC(=N)N)NC(=O)[C@H](CCSC)NC(=O)CNC(=O)[C@H](C)NC(=O)[C@H](CCCCN)NC(=O)[C@H](CCCCN)NC(=O)[C@@H]3CSSC[C@@H](C(=O)N[C@H](C(=O)N4CCC[C@H]4C(=O)N[C@@H](CCCCN)C(=O)O)[C@@H](C)O)NC(=O)[C@H](Cc4c[nH]cn4)NC(=O)[C@H](CSSC[C@H](NC(=O)[C@H](CCC(N)=O)NC(=O)[C@H](CCCNC(=N)N)NC(=O)[C@H](CO)NC1=O)C(=O)N[C@@H](CC(C)C)C(=O)N[C@@H](CCC(=O)O)C(=O)N1CCC[C@H]1C(=O)N3)NC(=O)[C@H](CCCCN)NC(=O)CNC(=O)[C@H](Cc1cccc3ccccc13)NC(=O)[C@H](CCSC)NC2=O [N30Nal] (H-GVIINVKCKISRQCLEPCKKAGMRFGKCM[1Nal]GKCHCTPK-OH; disulfide 8-28, 14-33, 18-35)
IC50 [1]: 37 nM
IC50 (human Kv1.3 (CHO)): > 3.33 nM

E. coli-derived Fc-L-ShK[1-35]
IC50 (human Kv1.3 [3]; read-out: Kv1.3 IC50 by WCVC): 1.4 nM

E. coli-derived Fc-L-OSK1
IC50 (human Kv1.3 [3]; read-out: Kv1.3 IC50 by WCVC): 3.2 nM

E. coli-derived ShK[2-35]-L-Fc
IC50 (human Kv1.3 (CHO); read-out: Kv1.3 IC50 by IWQ): 4.9 nM

Fc-L10-ShK[2-35]: human IgG1 Fc fused via 10 amino acid linker to ShK[2-35]
thapsigargin-induced IFN-g production in human whole blood [1]: suppressed
IC50 (human Kv1.3 [3]; [5]): 0.115 ± 0.018 nM
stability in whole blood [2]: stable in whole blood
thapsigargin-induced IL-2 production in human whole blood [2]: suppressed
times more potent than cyclosporine A in blocking IL-2 production (IC50) [2]: more than 200 times

CC[C@H](C)[C@@H]1NC(=O)[C@H](CCCCN)NC(=O)[C@@H](NC(=O)[C@H](CCCCN)NC(=O)[C@@H](NC(=O)[C@H](CC(N)=O)NC(=O)[C@@H](NC(=O)[C@@H](NC(=O)[C@@H](NC(=O)CN)C(C)C)[C@@H](C)CC)[C@@H](C)CC)C(C)C)CSSC[C@@H]2NC(=O)[C@H](CCCCN)NC(=O)CNC(=O)[C@H](Cc3ccccc3)NC(=O)[C@H](CCCNC(=N)N)NC(=O)[C@H](CCSC)NC(=O)CNC(=O)[C@H](C)NC(=O)[C@H](CCCCN)NC(=O)[C@H](CCCCN)NC(=O)[C@@H]3CSSC[C@@H](C(=O)N[C@H](C(=O)N4CCC[C@H]4C(=O)N[C@@H](CCCCN)C(=O)O)[C@@H](C)O)NC(=O)[C@H](Cc4c[nH]cn4)NC(=O)[C@H](CSSC[C@H](NC(=O)[C@H](CCC(N)=O)NC(=O)[C@H](CCCNC(=N)N)NC(=O)[C@H](CO)NC1=O)C(=O)N[C@@H](CC(C)C)C(=O)N[C@@H](CCC(=O)O)C(=O)N1CCC[C@H]1C(=O)N3)NC(=O)[C@H](CCCCN)NC(=O)CNC(=O)[C@H](CC(N)=O)NC(=O)[C@H](C)NC2=O [OSK1[Ala-29]] (H-GVIINVKCKISRQCLEPCKKAGMRFGKCANGKCHCTPK-OH; disulfide 8-28, 14-33, 18-35)
IC50 (human Kv1.3 [4]; read-out: IC50 on CHO/Kv1.3): 0.033 nM
potency relative to cyclosporin A in blocking the cytokine response [2]: several orders of magnitude more potent
inhibition of Kv1.3 current and selectivity over Kv1.1 by IonWorks (human Kv1.3 (CHO)): potent inhibition of the Kv1.3 current and improved selectivity over Kv1.1

E. coli-derived Shk[1-35]-L-Fc
IC50 (human Kv1.3 (CHO); read-out: Kv1.3 IC50 by IWQ): 2.4 nM

Fc-L5-ShK[2-35]: human IgG1 Fc fused via 5 amino acid linker to ShK[2-35]
IC50 (human Kv1.3 [3]; [5]): 0.1 nM

CC[C@H](C)[C@@H]1NC(=O)[C@@H](NC(=O)[C@@H](N)CO)CSSC[C@@H](C(=O)O)NC(=O)[C@H]([C@@H](C)O)NC(=O)CNC(=O)[C@@H]2CSSC[C@@H]3NC(=O)[C@H](CCC(N)=O)NC(=O)[C@H](Cc4ccccc4)NC(=O)[C@H](C)NC(=O)[C@H]([C@@H](C)O)NC(=O)[C@H](CSSC[C@H](NC(=O)[C@H](Cc4ccccc4)NC(=O)[C@H](CO)NC(=O)[C@H](CC(C)C)NC(=O)[C@H](CCCNC(=N)N)NC(=O)[C@H](Cc4ccc(O)cc4)NC(=O)[C@H](CCCCN)NC(=O)[C@H](CCSC)NC(=O)[C@H](CO)NC(=O)[C@H](Cc4c[nH]cn4)NC(=O)[C@H](CCCCN)NC3=O)C(=O)N[C@@H](CCCNC(=N)N)C(=O)N[C@@H](CCCCN)C(=O)N[C@@H]([C@@H](C)O)C(=O)N2)NC(=O)[C@H](CCCNC(=N)N)NC(=O)[C@H](CO)NC(=O)[C@H](CCCCN)NC(=O)[C@@H]2CCCN2C(=O)[C@H]([C@@H](C)CC)NC(=O)[C@H]([C@@H](C)O)NC(=O)[C@H](CC(=O)O)NC1=O [ShK[2-35]] (H-SCIDTIPKSRCTAFQCKHSMKYRLSFCRKTCGTC-OH; disulfide 2-34, 11-27, 16-31)
IC50 (human Kv1.3 [3]): 0.049 ± 0.005 nM

Fc-L-KTX1: Fc-linker fusion of Kaliotoxin1 (KTX1)
block of human Kv1.3 current (human Kv1.3 [3]): blocked the human Kv1.3 current in a dose-dependent fashion

CC[C@H](C)[C@@H]1NC(=O)[C@H](CCCCN)NC(=O)[C@@H](NC(=O)[C@H](CCCCN)NC(=O)[C@@H](NC(=O)[C@H](CC(N)=O)NC(=O)[C@@H](NC(=O)[C@@H](NC(=O)[C@@H](NC(=O)CN)C(C)C)[C@@H](C)CC)[C@@H](C)CC)C(C)C)CSSC[C@@H]2NC(=O)[C@H](CCCCN)NC(=O)CNC(=O)[C@H](Cc3ccccc3)NC(=O)[C@H](CCCNC(=N)N)NC(=O)[C@H](CCSC)NC(=O)CNC(=O)[C@H](C)NC(=O)[C@H](CCCCN)NC(=O)[C@H](CCCCN)NC(=O)[C@@H]3CSSC[C@@H](C(=O)N[C@H](C(=O)N4CCC[C@H]4C(=O)N[C@@H](CCCCN)C(=O)O)[C@@H](C)O)NC(=O)[C@H](Cc4c[nH]cn4)NC(=O)[C@H](CSSC[C@H](NC(=O)[C@H](CCC(N)=O)NC(=O)[C@H](C)NC(=O)[C@H](CO)NC1=O)C(=O)N[C@@H](CC(C)C)C(=O)N[C@@H](CCC(=O)O)C(=O)N1CCC[C@H]1C(=O)N3)NC(=O)[C@H](CCCCN)NC(=O)CNC(=O)[C@H](CC(N)=O)NC(=O)[C@H](CCSC)NC2=O [R12A] (H-GVIINVKCKISAQCLEPCKKAGMRFGKCMNGKCHCTPK-OH; disulfide 8-28, 14-33, 18-35)
IC50 [1]: 0.155 nM
Kv1.3 Selectivity (= Kv1.1/Kv.3 IC50) (human Kv1.3 [4]): 17
IC50 [2]: 0.123 nM

E. coli-derived Fc-L-ShK[2-35]
IC50 (human Kv1.3 [3]; read-out: Kv1.3 IC50 by WCVC): 1.3 nM
IC50 (human Kv1.3 (CHO); read-out: Kv1.3 IC50 by IWQ): 2.8 nM

Reference: patent US7820623B2 (priority 2006, dated 2010)
